Assays:
[1] = test system: DEN-induced rat liver damage; experiment: DEN-induced rat liver damage model; assay type: in vivo, SD rat; conditions: plasma, vs model group
Method: Experimental method: An SD rat liver damage model was constructed through intermittent intraperitoneal injection of DEN. A model group was injected intraperitoneally with DEN at 50 mg/kg twice a week in the first 4 weeks and then once a week in the 5th to 8th weeks. An SMI0 intervention group, which was injected with DEN at the amount and the way the same as that in the model group, was divided into SMI0+DEN low-dose and high-dose groups and an SMI0 high-dose continuous administration group, where the SMI0+DEN low-dose and high-dose groups were intragastrically administered with the compound SMI0 at 30 mg/kg and 150 mg/kg 5 min before DEN administration each time, respectively; and the SMI0 high-dose continuous administration group was intragastrically administered with the compound SMI0 at 150 mg/kg every day from the 1st week to the 8th week. At the end of molding, blood was collected from the orbit, and plasma liver function indexes of rats were determined by an automatic biochemical analyzer (model group, n=10 rats; SMI0 compound low-dose group, n=21 rats; (150 mg/kg)^a, SMI0 compound+DEN high-dose group, n=28 rats; and (150 mg/kg)^b, SMI0 compound high-dose continuous administration group, n=24 rats].

[2] = test system: liver fibrosis in mice induced by a high-fat diet; experiment: Mouse liver fibrosis model induced by a high-fat diet; assay type: in vivo, C57/6J mice; conditions: SMI0 30 and 150 mg/kg ig daily, 26 weeks, vs model group
Method: Experimental method: Male C57/6J mice were fed with a high-fructose, high-fat, and high-cholesterol feed to prepare mouse liver steatosis and hepatitis models, and a control group was fed with a low-fat and low-sugar control feed. An SMI0 intervention group was divided into a low-dose intervention group and a high-dose intervention group, which were intragastrically administered with the compound SMI0 at 30 mg/kg and 150 mg/kg every day from the beginning of modeling to the 26nd week of modeling. At the end of the 26-week experiment, blood was collected from the orbit, a body weight was measured, and then the mice each were sacrificed. The weight and appearance of a liver (color, texture, and presence or absence of nodules of the liver) were recorded. Some liver specimens were subjected to HE staining and then observed, and a steatosis score of mice in each group was recorded; and Masson staining was conducted to evaluate a liver fibrosis status of mice, and an oil red O staining area percentage was determined (model group, n=10 mice; SMI0 compound low-dose group, n=10 […]; and SMI0 compound high-dose group, n=10 […]).

[3] = test system: LPS-induced sepsis in rats; experiment: LPS-induced rat sepsis model; assay type: in vivo, SD rat; conditions: SMI0 150 mg/kg ig or celecoxib 5 mg/kg ig 30 min before LPS 5 mg/kg ip; 4 h, 5 h, 6 h; vs model group
Method: Rats: An SD rat sepsis model was constructed through single intraperitoneal injection of LPS (5 mg/kg). 30 min before LPS administration, rats in the model group were administered with NS (0.5 mL/kg, i.g.), rats in the positive control group were administered with celecoxib (5 mg/kg, i.g.), and rats in the CYP2E1 inhibition group were administered with the compound SMI0 (150 mg/kg, i.g.). After LPS administration, a body temperature of each rat was measured and recorded every hour until 9 h (control group, n=8 rats; model group, n=10 rats; celecoxib group, n=10 rats; and SMI0 compound group, n=10 rats).

[4] = test system: LPS-induced sepsis in mice; experiment: LPS-induced mouse sepsis model; assay type: in vivo; conditions: vs model group
Method: Mice: A mouse sepsis model was constructed through single intraperitoneal injection of LPS (15 mg/kg). 30 min before LPS administration, mice in the model group were administered with NS (0.5 mL/kg, i.g.), mice in the positive control group were administered with celecoxib (5 mg/kg, i.g.), and mice in the CYP2E1 inhibition group were administered with the compound SMI0 (90 mg/kg, i.g.). A body temperature of each mouse was measured and recorded at 6 h, 12 h, and 24 h after LPS administration, and the body temperature was measured […] in total throughout the experimental process. The animals were sacrificed at 24 h, blood samples were collected, and renal and cardiac function-associated indexes were determined (control group, n=8 mice; model group, n=8 mice; celecoxib group, n=8 mice; and SMI0 compound group, n=10 mice).

[5] = test system: cognitive dysfunction in STZ-induced AD rat model; experiment: STZ-induced AD rat model, Morris water maze; assay type: in vivo, SD rat; conditions: for Number of crossing platform / Time spent in the platform quadrant: MWM spatial exploration; for Number of crossing platform / Time spent in the platform quadrant / Incubation period Day 1 / Incubation period Day 2 / Incubation period Day 3 / Incubation period Day 4 / Incubation period Day 5 / Incubation period Day 6: n=15; for Incubation period Day 1 / Incubation period Day 2 / Incubation period Day 3 / Incubation period Day 4 / Incubation period Day 5 / Incubation period Day 6: MWM
Method: Experimental method: A male SD rat AD model was constructed through bilateral intracerebroventricular injection of STZ, where STZ was injected at 3 mg/kg on day 1 and STZ was injected at 1.5 mg/kg on day 3. STZ was injected into bilateral cerebral ventricles (0.9 mm posterior to the anterior fontanelle, 1.5 mm at the left or right of the sagittal suture, and below the brain surface and 3.8 mm to the skull) by a brain stereotaxic instrument. The sham-operated group was injected with a same volume of a control solvent according to same operations. The low-dose and high-dose prevention and treatment groups were intragastrically administered with the compound SMI0 respectively at 10 mg/kg and 30 mg/kg starting from day 11 after modeling, and the administration was conducted consecutively for 21 d. On day 14 of the continuous administration (that is, on […] of modeling), the Morris water maze (MWM) was used to conduct spatial positioning navigation training consecutively for 6 d, and a spatial exploration experiment was conducted 24 h after the spatial positioning navigation training was completed (15 rats in each group).

[6] = SMI0 intervention group, 8 weeks

CC(=O)c1scnc1C [SMI0]
albumin (ALB2) level ([1]; SMI0 intervention group (30, 150 mg/kg ig before DEN; 150 mg/kg daily), 8 weeks): significantly increased
alanine aminotransferase (ALTL) level [1, 6]: significantly reduced
alkaline phosphatase (ALP) (ALP2S) level [1, 6]: significantly reduced
cholinesterase (CHE2) level [1, 6]: significantly increased
direct bilirubin (BILD2) level [1, 6]: significantly reduced
glutamyl transpeptidase (GGTI2) level [1, 6]: significantly reduced
total bilirubin (BILT3) level [1, 6]: significantly reduced
TP2 level ([1]; SMI0 low-dose group (30 mg/kg ig)): significantly increased
liver fibrosis level in mice induced by a high-fat diet [2]: significantly reduce
increase in body temperature in the LPS-induced sepsis rat model [3]: avoided
decrease in body temperature in the LPS-induced sepsis mouse model ([4]; SMI0 90 mg/kg ig 30 min before LPS 15 mg/kg ip, 6 h, 12 h, 24 h): avoided
levels of renal and cardiac function-associated indexes (urea nitrogen, creatinine, CK, LDH) ([4]; serum at 24 h, SMI0 90 mg/kg ig): significantly reduced
Number of crossing platform ([5]; SMI0 10 mg/kg ig): 5.1
Time spent in the platform quadrant ([5]; SMI0 10 mg/kg ig): 29.4%
Number of crossing platform ([5]; SMI0 30 mg/kg ig): 8.2
Time spent in the platform quadrant ([5]; SMI0 30 mg/kg ig): 39.3%
Incubation period Day 1 ([5]; SMI0 10 mg/kg ig for 21 d): 95.7 s
Incubation period Day 2 ([5]; SMI0 10 mg/kg ig for 21 d): 61.1 s
Incubation period Day 3 ([5]; SMI0 10 mg/kg ig for 21 d): 39.5 s
Incubation period Day 4 ([5]; SMI0 10 mg/kg ig for 21 d): 33.2 s
Incubation period Day 5 ([5]; SMI0 10 mg/kg ig for 21 d): 23.1 s
Incubation period Day 6 ([5]; SMI0 10 mg/kg ig for 21 d): 18.5 s
Incubation period Day 1 ([5]; SMI0 30 mg/kg ig for 21 d): 94.6 s
Incubation period Day 2 ([5]; SMI0 30 mg/kg ig for 21 d): 52.7 s
Incubation period Day 3 ([5]; SMI0 30 mg/kg ig for 21 d): 35.9 s
Incubation period Day 4 ([5]; SMI0 30 mg/kg ig for 21 d): 25.2 s
Incubation period Day 5 ([5]; SMI0 30 mg/kg ig for 21 d): 20.0 s
Incubation period Day 6 ([5]; SMI0 30 mg/kg ig for 21 d): 18.6 s
improvement rate of ICV-STZ-induced cognitive dysfunction ([5]; SMI0 high-dose group (30 mg/kg), vs model group, significant): 46.7%
improvement rate of ICV-STZ-induced cognitive dysfunction ([5]; SMI0 low-dose group (10 mg/kg), without a significant statistical difference): 32.6%
